The record followed here is US10093674B2, “Supramolecular nanofibers and hydrogels based on nucleic acids functionalized with nucleobases” (Brandeis University, priority 2011, dated 2018).

In assay [1] the test system is HeLa cells. To be noted: 500 μM, 72 hours; for cell viability: MTT assay. An excerpt:
To verify the biocompatibility of the hydrogelators, we added hydrogelator 1 or precursor 2 into the culture of HeLa cells and measured the proliferation of the cells.
(In general: Formazan colour is commonly taken as a measure of viable cells.)

Assay [2] deals with alkaline phosphatase (ALP). The conditions noted are these: 12 h after the addition of alkaline phosphatase, 31P NMR. An excerpt: Following the procedures reported by Nieddu for making nucleobase acetic acids, we first synthesized bis(tert-butyloxycarbonyl) (bis-Boc) protected adenine, (N^6-bis-Boc-adenine-9-yl)-acetic acid (4). After being activated by N-hydroxysuccinimide (NHS), 4 reacts with L-Phe to afford 5, which undergoes the same NHS activation and phenylalanine coupling to give the key intermediate 6.

In a further assay the test system is mammalian cells. To be noted: 500 μM, 72 hours; for cell viability: mammalian cells, MTT assay. As to the method:
To verify the biocompatibility of the hydrogelators, hydrogelators 1′ and 2′ were added into a culture of mammalian cells, and the proliferation of the cells was measured.

The subject of assay [3] is HeLa cells. To be noted: 500 μM in medium, 20 h.
Protocol: HeLa cells were re-suspended in 10 cm tissue culture dish after washing cells once with PBS. 0.8 mL 0.25% trypsin containing 0.1% EDTA was then added, and the cells were re-suspended with 1.6 mL complete medium. 5000 cells (in 100 μL medium) were plated into each vial on a 96 well plate to create a confluent monolayer. After adherent for 24 h, a wound was created by scraping the cell monolayer with a p200 pipet tip. The cells were washed once with 100 μL of complete medium to remove flowing cells and replace with 100 μL of complete medium. 0 h image was acquired as a reference point. […] 0 h and 20 h images were acquired at the match photographed region.
In assay [4] the test system is HeLa cells. The conditions noted are these: 500 μM 1T′ and 0.1 μM nucleic acid complex, 24 h. The protocol: HeLa cells were seeded in 2 well chamber slide at a density of 10,000 cell/well. […] After incubation at 37° C. for 24 h, we removed the culture medium, washed the cells by 1 mL PBS for 3 times, then resin the cells in 1 mL PBS. Fluorescence images were taken by using confocal fluorescence microscope. FIG. 34.

For the substance Adenine-Phe-Phe [Compound 1A], the cell viability (commonly a read-out of living cells in per cent, often relative to untreated cells) with HeLa cells [1] was 100%.
“Adenine-Phe-Phe-Tyr-phosphate [Compound 2A]”: the “transformation of precursor into hydrogelator” value in assay [2] is “completely transforms”. In the assay on HeLa cells [1], this substance displayed a cell viability of 100%.
Turning to Adenine-Phe-Phe-glucosamine [2A′], the cell viability in the assay on mammalian cells is recorded as 90%.
On to Adenine-Phe-glucosamine [1A′], for which the “cell viability (in words)” value in the assay with mammalian cells is recorded as “decreased slightly”.
On the same count and under the same terms, next, Cytosine-Phe-Glucosamine [1C′]: “decreased slightly”.
For the substance Cytosine-Phe-Phe [Compound 1C], the cell viability in the assay on HeLa cells [1] is listed as 100%.
Regarding Cytosine-Phe-Phe-Glucosamine [2C′], the cell viability in the assay on mammalian cells was 90%.
Take “Cytosine-Phe-Phe-Tyr-phosphate [Compound 2C]”: the cell viability in the assay with HeLa cells [1] was determined as 100%.
Guanine-Phe-Phe [Compound 1G]: in the assay with HeLa cells [1], the “cell viability (in words)” value is recorded as “decreases slightly”.
Regarding “Guanine-Phe-Phe-Tyr-phosphate [Compound 2G]”, the “cell viability (in words)” value with HeLa cells [1] is “decreases slightly”.
Guanine-Phe-Phe-glucosamine [2G′] came in with a cell viability in the assay on mammalian cells of 90%.
Take Guanine-Phe-glucosamine [1G′]: the cell viability in the assay with mammalian cells was found to be 90%.
In the assay with HeLa cells [1], Thymine-Phe-Phe [Compound 1T] yielded a cell viability of 100%.
The same measure, in the same setting: the figure for “Thymine-Phe-Phe-Tyr-phosphate [Compound 2T]” is 100%.
In the assay on mammalian cells, Thymine-Phe-Phe-glucosamine [2T′] showed a cell viability of 90%.
As to Thymine-Phe-glucosamine [1T′], the “effect on the migration of cells” value in the assay with HeLa cells [3] was “little inhibitory effect”. Also, in the assay with mammalian cells, the cell viability is recorded as 90%. Also, in the assay with HeLa cells [4], the “delivery of FITC-labeled nucleic acid” value is on record as “nuclear localization of DNA”.
